Reference: patent publication US20200069677A1, “MARKERS FOR PERSONALIZED CANCER TREATMENT WITH LSD1 INHIBITORS” (Constellation Pharmaceuticals, Inc., priority 2016, published 2020)

Assays:
[1] = molecular target: T1, KDM1A/CoREST complex (Homo sapiens, UniProt O60341); assay: Anti-KDM1A immunoprecipitation and Western blot in SET2 cells; assay type: cell-based; parameters: endogenous in cells; host or cells: SET2 cells
Experimental: […] Cells were harvested, washed twice with cold PBS and resuspended in 5 volumes of Buffer A (10 mM Tris-HCL (pH 8.0), 1.5 mM MgCl2, 10 mM KCl, 0.5 mM DTT, supplemented with protease inhibitors). After 15 minutes on ice, cells were spun down at 1000×g for 15 minutes and the supernatant was removed as the cytosolic fraction. Pellets were resuspended in Buffer C (20 mM Tris-HCl, (pH 7.9), 25% glycerol, 0.42 M NaCl, 1.5 mM MgCl2, 0.2 mM EDTA, 0.5 mM DTT and protease inhibitors) and sonicated briefly (3 seconds, 40% output). After incubating on ice for 30 minutes, cells were spun at 20,000×g for 20 minutes to pellet the insoluble material. The supernatant was removed (soluble nuclear fraction) and combined with the cytosolic fraction to reconstitute a whole cell lysate with a final NaCl concentration of <200 mM. […] Co-precipitated proteins were detected by western blotting using the indicated primary antibodies. […] Bound antibodies were detected with goat anti-rabbit IgG antibody and goat anti-mouse IgG, conjugated with DyLight 800 AND DyLight 680, respectively. […]

[2] = molecular target: T1, KDM1A/CoREST complex; assay: Anti-KDM1A immunoprecipitation and Western blot in HEL cells; assay type: cell-based; parameters: endogenous in cells; conditions: overnight at 1 μM
Experimental: For immunoprecipitation, 3 μg of anti-KDM1A antibody (Bethyl Labs, Montgomery, Tex.) or rabbit IgG (Cell Signaling, Danvers, Mass.) were added to 0.5 mg of reconstituted whole cell lysate and placed on a rotator at 4° C. overnight. To isolate the immune complexes, 50 μL of pre-washed Protein G magnetic beads (Dynabeads, Invitrogen) equilibrated in A+C buffer (1:1) were added and the samples were rotated for 4° C. for an additional 2 hours. Beads were captured using a magnetic stand (DynaMag, Invitrogen) and washed 3 times with buffer A+C. The beads were re-suspended in 25 μl 2×SDS loading buffer and resolved on 4-12% SDS-PAGE gels. Co-precipitated proteins were detected by western blotting using the indicated primary antibodies. […] Here, HEL cells were treated with the KDM1A inhibitor RN-1 overnight at 1 μM concentration. Cell lysates were prepared and an immunoprecipitation was carried out using an anti-KDM1A antibody and rabbit IgG as a control. SDS-PAGE and Western blotting was performed on the input material and immunoprecipitated material. Blot was probed with an anti-GFI1B, anti-KDM1A, and anti-vinculin antibodies. Bound antibodies were detected with goat anti-rabbit IgG antibody and goat anti-mouse IgG, conjugated with DyLight 800 AND DyLight 680, respectively.

[3] = test system: SET2 xenografts; assay: In vivo efficacy on SET2 tumor xenografts; conditions: Nude mice; 1.5, 5 and 15 mg/kg p.o. QD; 14 days of dosing
Experimental: FIG. 12 illustrates the in vivo efficacy of GSK2879552 on SET2 xenografts. […] Tumor-bearing animals were treated with 3 different dose levels of the KDM1A inhibitor: 1.5 mg/kg, 5 mg/kg, and 15 mg/kg administered orally (p.o.) on a daily schedule (QD). […] Top right panel indicates body weight changes determined in the treated mice.

SMILES	GFI1B association with the KDM1A/CoREST complex (co-immunoprecipitation) ([1]; SET2 cells, 1 μM RN-1 for 24 hours, vs DMSO)	CoREST retention in the KDM1A complex (co-immunoprecipitation) ([1]; SET-2 cells, overnight at 1 μM)	GFI1B association with the KDM1A/CoREST complex (co-immunoprecipitation) [2]	Growth of SET-2 tumor xenografts (tumor size) [3]
CN1CCN(C(=O)CN[C@@H]2CC2c2ccc(OCc3ccccc3)cc2)CC1 (stereo partly shown) [RN-1]	displacement of GFI1B from the KDM1A/CoREST complex	CoREST is retained in the KDM1A complex	displacement of GFI1B from the KDM1A/CoREST complex	–
O=C(O)c1ccc(CN2CCC(CN[C@@H]3C[C@H]3c3ccccc3)CC2)cc1 [GSK2879552]	–	–	–	reduced the growth of SET-2 tumor xenografts
